From patent publication EP4631940A1, “COMPOUND TARGETING PAN-KRAS PROTEIN DEGRADATION AGENT AND USE THEREOF” (Betta Pharmaceuticals Co., Ltd., priority 2022, dated 2024) come the findings set out here.

Series [1] addresses T1, KRAS G12D (Homo sapiens, UniProt P01116, G12D). In words: cell-based. The following applies: AGS.
Series [2] relates to H358. In words: Cell proliferation experiment (CellTiter-Glo). It counts as cell-based. The following applies: H358, KRAS mutation type G12C, 96 h incubation. A general note: In ATP-based viability assays light output follows the ATP content of the culture.
Series [3] is described as follows: in vitro. The following applies: rat, microsomes.
A short description of series [4]: in vitro. As to conditions: human, microsomes.
For series [5], the system named is AGS. As to the kind of experiment: Cell proliferation experiment (CellTiter-Glo). It counts as cell-based. As to conditions: read-out: IC50(nM) AGS.
The nature of series [6]: in vitro. The following applies: mouse, microsomes.
Series [7] concerns SW620. In words: Cell proliferation experiment (CellTiter-Glo). It counts as cell-based. As to conditions: read-out: IC50(nM) SW620.
In series [8] the target is T1, KRAS G12D.
Series [9] in a line: in vitro. As to conditions: dog, microsomes.
A short description of series [10]: PK study in ICR mice (whole blood). It counts as in vivo. As to conditions: Female ICR mice, IV 1 mg/kg; for AUC(0-t) / half-life / C0: mouse; for C0: read-out: C0. On the procedure:
Example 8 PK Study of Compound in ICR Mice (whole blood)
The compound was mixed with the vehicle (10% DMSO / 5% Solutol HS 15 / 85% saline), vortexed, and sonicated to prepare a clear solution at 0.2 mg/mL. Female ICR mice aged 6 to 7 weeks (non-fasted) were intravenously administered the compound. Whole blood was collected at specified time points. Drug concentration was analyzed by LC-MS/MS, and pharmacokinetic parameters were calculated using Phoenix WinNonlin software (Pharsight Corporation, USA). Table 11 Mouse PK Data for Intravenous Compound Monotherapy

Series [11] deals with PK59. As to the kind of experiment: Cell proliferation experiment (CellTiter-Glo). It counts as cell-based. As to conditions: PK-59; PK59, KRAS mutation type G12D; 96 h incubation.

Read-outs that look alike come from different tables or passages of the source.

T1 sequence (P01116 1-188 isoform P01116-2 G12D): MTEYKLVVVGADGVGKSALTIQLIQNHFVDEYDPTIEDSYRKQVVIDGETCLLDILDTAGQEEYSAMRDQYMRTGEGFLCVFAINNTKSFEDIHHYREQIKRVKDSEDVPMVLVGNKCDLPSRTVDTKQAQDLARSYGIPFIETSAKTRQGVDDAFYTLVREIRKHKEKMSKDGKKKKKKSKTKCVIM

`CCc1c(F)ccc2cc(O)cc(-c3ncc4c(N5CCC[C@@](C)(O)C5)nc(OCC5(CN6CCC7(CC6)CN(c6ccc(-c8cn([C@H](C(=O)N9C[C@H](O)C[C@H]9C(=O)N[C@@H](C)c9ccc(-c%10scnc%10C)cc9)C(C)C)nn8)cc6)C7)CC5)nc4c3F)c12` [Compound 75]: the Dmax in series [1] stood at 95%. In addition, the 50% inhibitory concentration (IC50) – broadly, the concentration that gives 50% inhibition – in [2] (Homo sapiens, NCI-H358) came out at 40 nM; in series [5] (Homo sapiens, AGS, 96 h), 11 nM; in series [7] (Homo sapiens, SW-620, 96 h) it was 122 nM. Further, the microsomal CLint – broadly, the rate of metabolic loss divided by the concentration – in series [3] was found to be 20.7 µL/min/mg; in series [4] it was 1 µL/min/mg; in series [6], 8.6 µL/min/mg; in series [9], 22.1 µL/min/mg. In addition, the DC50 in series [8] stood at 24 nM.
On to `CCc1c(F)ccc2cc(O)cc(-c3ncc4c(N5CCC[C@@](C)(O)C5)nc(OC[C@]56CCCN5[C@@H](COC(=O)N5CCC7(CC5)CC(C(=O)N[C@H](C(=O)N5C[C@H](O)C[C@H]5C(=O)N[C@@H](C)c5ccc(-c8scnc8C)cc5)C(C)(C)C)C7)CC6)nc4c3F)c12` [Compound 88], for which the “Cl_obs” value in series [10] was 4.03 mL/min/kg. Further, the “Vss_obs” value in [10] amounted to 0.780 L/kg. Also, in series [10], the AUC(0-t) (commonly the area under the concentration-time curve up to a stated or last time point) worked out at 4110 ng·h/mL. Besides, the half-life (in general, the time needed for the level to fall by half in the phase considered) in [10] is 5.61 h. Moreover, in [10], the C0 is 5000 ng/mL. Besides, the IC50 in series [2] (Homo sapiens, NCI-H358) stood at 90 nM; in series [5] (Homo sapiens, AGS, 96 h), 33 nM; in series [7] (Homo sapiens, SW-620, 96 h) it was 199 nM. Besides, the microsomal CLint in [3] came to 10.1 µL/min/mg; in series [4] it was 13.4 µL/min/mg; in [6], 24.5 µL/min/mg; in [9], 13.3 µL/min/mg.
The molecule `CCc1c(F)ccc2cc(O)cc(-c3ncc4c(N5CCC[C@@](C)(O)C5)nc(OCC5(CN6CCC(OCc7ccc(-c8cn([C@H](C(=O)N9C[C@H](O)C[C@H]9C(=O)N[C@@H](C)c9ccc(-c%10scnc%10C)cc9)C(C)C)nn8)cc7)CC6)CC5)nc4c3F)c12` [Compound 93] showed a Dmax in series [1] of 95%. Further, the half-inhibitory concentration (IC50) was found to be 20 nM in [2] (Homo sapiens, NCI-H358); 6.8 nM in series [5] (Homo sapiens, AGS, 96 h); 86 nM in series [7] (Homo sapiens, SW-620, 96 h). The microsomal CLint worked out at 10.9 µL/min/mg in [3], 23.5 µL/min/mg in series [4], 8.3 µL/min/mg in series [6] and 28.5 µL/min/mg in [9]. This molecule gave a DC50 in series [8] of 11 nM.
Take `CCc1c(F)ccc2cc(O)cc(-c3ncc4c(N5CCC[C@@](C)(O)C5)nc(OCC5(CN6CCC(c7ccc(-c8cn([C@H](C(=O)N9C[C@H](O)C[C@H]9C(=O)N[C@@H](C)c9ccc(-c%10scnc%10C)cc9)C(C)C)nn8)cc7)CC6)CC5)nc4c3F)c12` [Compound 133]: the “Cl_obs” value in series [10] is listed as 14.2 mL/min/kg. Also, the “Vss_obs” value in series [10] was found to be 2.49 L/kg. Further, the AUC(0-t) in series [10] turned out to be 1200 ng·h/mL. In [10], the half-life was 5.77 h. The C0 in series [10] came to 2840 ng/mL. Besides, the Dmax in [1] is 95%. For the same molecule, the IC50 in [2] (Homo sapiens, NCI-H358) worked out at 48 nM; in series [5] (Homo sapiens, AGS, 96 h), 13 nM; in [7] (Homo sapiens, SW-620, 96 h), 74 nM. The microsomal CLint in series [3] amounted to 7.2 µL/min/mg; in [4] it was 7.4 µL/min/mg; in series [6], 8 µL/min/mg; in series [9], 9.3 µL/min/mg. This molecule returned a DC50 in series [8] of 17 nM.
Turning to `CCc1c(F)ccc2cc(O)cc(-c3ncc4c(N5CCC[C@@](C)(O)C5)nc(OCC5(CN6CCC(Oc7cc(-c8cn([C@H](C(=O)N9C[C@H](O)C[C@H]9C(=O)N[C@@H](C)c9ccc(-c%10scnc%10C)cc9)C(C)C)nn8)ccn7)CC6)CC5)nc4c3F)c12` [Compound 136], in series [1], the Dmax is 95%. Further, the IC50 in [2] (Homo sapiens, NCI-H358) amounted to 6.6 nM; in series [5] (Homo sapiens, AGS, 96 h) it was 10 nM; in series [7] (Homo sapiens, SW-620, 96 h) it was 53 nM. Further, the microsomal CLint in series [3] turned out to be 8 µL/min/mg; in series [4], 19.6 µL/min/mg; in [6], 22.1 µL/min/mg; in series [9], 20.8 µL/min/mg. The molecule further registered a DC50 in [8] of 14 nM.
The molecule `C=C1CN2[C@@H](COC(=O)N3CCC4(CC3)CC(c3cn([C@H](C(=O)N5C[C@H](O)C[C@H]5C(=O)N[C@@H](C)c5ccc(-c6scnc6C)cc5)C(C)C)nn3)C4)CC[C@@]2(COc2nc(N3CCC[C@@](C)(O)C3)c3cnc(-c4cc(O)cc5ccc(F)c(CC)c45)c(F)c3n2)C1` [Compound 143] had a Dmax in series [1] of 95%. The IC50 stood at 24 nM in [2] (Homo sapiens, NCI-H358); 16 nM in series [5] (Homo sapiens, AGS, 96 h); 58 nM in [7] (Homo sapiens, SW-620, 96 h). In addition, in series [8], the DC50 is 12 nM.
With `CCc1c(F)ccc2cc(O)cc(-c3ncc4c(N5CCC[C@@](C)(O)C5)nc(OCC5(CN6CCN(C78CC(c9cn([C@H](C(=O)N%10C[C@H](O)C[C@H]%10C(=O)N[C@@H](C)c%10ccc(-c%11scnc%11C)cc%10)C(C)C)nn9)(C7)C8)CC6)CC5)nc4c3F)c12` [Compound 149, (2S,4R)-1-((S)-2-(4-(3-(4-((1-(((7-(8-ethyl-7-fluoro-3-hydroxynaphthalen-1-yl)-8-fluoro-4-((R)-3-hydroxy-3-methylpiperidin-1-yl)pyrido[4,3-d]pyrimidin-2-yl)oxy)methyl)cyclopropyl)methyl)piperazin-1-yl)bicyclic[1.1.1]pent-1-yl)-1H-1,2,3-triazol-1-yl)-3-methylbutanoyl)-4-hydroxy-N-( (S)-1-(4-(4-methylthiazol-5-yl)phenyl)ethyl)pyrrolidine-2-carboxamide], in series [1], the Dmax stood at 95%. Besides, the IC50 in series [5] (Homo sapiens, AGS, 96 h) is 15 nM; in series [11] it was 57 nM. For the same molecule, the DC50 in series [8] is 7.6 nM.
For the molecule “(2S,4R)-1-((2R)-2-(3-(3-(4-((1-((7-(8-ethyl-7-fluoro-3-hydroxynaphthalen-1-yl)-8-fluoro-4-((R) 3-hydroxy-3-methylpiperidin-1-yl)pyrido[4,3-d]pyrimidin-2-yl)oxy)methyl)cyclopropyl)methyl) piperazin-1-yl)pyrrolidin-1-yl)isoxazol-5-yl)-3-methylbutanoyl)-4-hydroxy-N-((S)-1-(4-(4-meth ylthiazol-5-yl)phenyl)ethyl)pyrrolidine-2-carboxamide [Compound 166]”, the results for the IC50 in [2], in [5] and in [7] were 21 nM, 4.9 nM and 33 nM, respectively.
On to “(2S,4R)-1-((S)-2-(4-(5-(7-((7-(8-ethyl-7-fluoro-3-hydroxynaphthalen-1-yl)-8-fluoro-4-((R)-3-hy droxy-3-methylpiperidin-1-yl)pyrido[4,3-d]pyrimidin-2-yl)oxy)methyl)cyclopropyl)methyl)-2,7-azaspiro[3.5]nonan-2-yl)pyrazin-2-yl)-1H-1,2,3-triazol-1-yl)-3-methylbutanoyl)-4-hydroxy-N-(( R)-2-hydroxy-1-(4-(4-methylthiazol-5-yl)phenyl)ethyl)pyrrolidine-2-carboxamide [Compound 170]”, for which the results for the concentration for half-maximal inhibition (IC50) in series [2], in series [5] and in series [7] were 8.5 nM, 3.6 nM and 19 nM, respectively.
On to “(2S,4R)-1-((S)-2-(4-(5-((1-((1-(((7-(8-ethyl-7-fluoro-3-hydroxynaphthalen-1-yl)-8-fluoro-4-((R)-3-hydroxy-3-methylpiperidin-1-yl)pyrido[4,3-d]pyrimidin-2-yl)oxy)methyl)cyclopropyl)methyl) piperidin-4-yl)oxy)pyrazin-2-yl)-1H-1,2,3-triazol-1-yl)-3-methylbutanoyl)-4-hydroxy-N-((1R,2R )-2-hydroxy-3-methyl-1-(4-(4-methylthiazol-5-yl)phenyl)butyl)pyrrolidine-2-carboxamide [Compound 184]”, for which the IC50 was determined as 15 nM in series [2], 2.7 nM in series [5] and 11 nM in [7].
